# What was measured:
# Assay type in all cases: cell-based
# PC-3 = test: CTG cell survival assay, PC-3; settings: Homo sapiens, PC-3 cells
# Excerpt: (§1) 2. CTG Cell Survival Assay:
# (§2) ATP is necessarily produced during the metabolic activities of viable cells, and there is a linear relationship between the content of ATP and the number of viable cells. Cell viability assay by CTG chemiluminescence is a general method for detecting the number of viable cells in the culture cells based on this principle. The addition of the CellTiter-Glo (CTG) reagent may induce cell lysis and produce chemiluminescent signals directly proportional to the amount of ATP in the well-plate, and thereby the cell proliferation activity in the well-plate can be measured by the reading values from the chemiluminescence.
# (§3) 2.1 Experimental Materials and Instruments:
# (§4) 2.4 Experimental Procedure: • 1.4.1 Cell Thawing: Cryogenic vials were removed from the liquid nitrogen container, directly immersed in a water bath at 37° C., and shaked from time to time to thaw. The cryogenic vials were removed from the water bath at 37° C., and transferred to the biosafe cabinet. Their lids were opened, and the cell suspensions were aspirated with pipettes, added to centrifuge tubes, and then added with more than 10 volumes of culture solution, mixed well; centrifuged for 5 min at 1000 rpm; the supernatant was discarded, and medium containing cell growth was added to resuspend cells. All cell suspensions were seeded to the T25 culture flasks and static cultured in an incubator at 37° C.; the culture solution were changed once on the next day, and continued to be cultured. • 2.4.2 Cell Passaging: After cells were grown to logarithmic phase and were 80%-90% confluent, cells were removed and placed in the biosafe cabinet, the old culture solution was discarded, and the cells were wetted and washed with PBS once or twice. An appropriate amount of 0.25% Trypsin-EDTA solution was added to the culture flasks. The flasks were placed in the carbon dioxide incubator at 37° C. for 2-5 min. An appropriate amount of cell growth medium containing 10% PBS was added to terminate the digestion, lightly swished, and transferred to the centrifuge tubes and centrifuged for 5 min at 1000 rpm. The cells were prepare (into cell suspensions for passaging and experimental use. • 2.4.3 Cell Plating • 2.4.3.1 A cell suspension was prepared: After cells were grown to logarithmic phase and were 80%-90% confluent, the cells were removed to the biosafe cabinet, and the old culture solution was discarded, then the cells were wetted and washed with PBS once or twice. An appropriate amount of 0.25% Trypsin-EDTA solution was added to the culture flask. The flask was placed in a carbon dioxide incubator at 37° C. for 2-5 min. An appropriate amount of the cell growth medium containing 10% PBS was added to terminate digestion, and was lightly swished. The solution was transferred to a centrifuge tube, centrifuged for 5 min at 1000 rpm, and counted. […] Secondly, 20 uM of the compound to be tested was diluted with the cell growth medium containing 0.2% DMSO in 3-fold dilution to obtain 9 concentrations, and there were 10 concentration gradients in total. • 2.4.4.3 Addition of the compounds to be tested: the prepared gradient dilution solutions of compounds to be tested were taken and added to the cell culture plate at 100 ul/well; at this point, the maximum concentration of compounds to be tested was 10 uM, and the concentration of DMSO was 0.1%.
# MV-4-11 = test: CTG cell survival assay, MV-4-11; settings: Homo sapiens, MV4-11, MV-4-11 cells
# Excerpt: as §1, §2, §3
# 2.1.1 Experimental Materials: compounds to be tested, cell basal culture medium, RPMI Medium 1640 (Invitrogen, Cat#11875-093), fetal calf serum (FBS): Hyclone FETAL BOVINE SERUM DEFINED (Invitrogen, Cat#SH30070.03), antibiotics: Penicilin Streptomycin (Invitrogen, Cat#15140-122), phosphate buffer (Corning Cellgro, Cat#R21-040-CV), cell digestive solution: 0.25% Trypsin-EDTA (Invitrogen, Cat#25200-056), CTG detection kit: Promega, Cat#G7571, flat-bottom 96-well black bottom plate: NUNC, Cat#165305, T25 culture flask: NUNC, Cat#156367, T75 culture flask: NUNC, Cat#156439
# 2.2 Experimental Instruments: Carbon Dioxide Incubator, SANYO-MCO-20AIC, Biosafe Cabinet: BSC-1360-LIIA2, Table-Top High-Speed Refrigerated Centrifuge: SorvallST 16R, Microplate Rapid Oscillator: QB-9001, M3 Reader: SpectraMax M3, Microscope: OLYMPUS-CKX41/CKX31.
# 2.3 Preparation of Solutions and Reagents: Formulation of cell growth medium: RPMI Medium 1640+10% FBS+antibiotics, others: trypsin digestive solution, phosphate buffer (PBS), DMSO, CTG detection kit.
# 2.4 Experimental Procedure: • 1.4.1 Cell Thawing: Cryogenic vials were removed from the liquid nitrogen container, directly immersed in a water bath at 37° C., and shaked from time to time to thaw. The cryogenic vials were removed from the water bath at 37° C., and transferred to the biosafe cabinet. Their lids were opened, and the cell suspensions were aspirated with pipettes, added to centrifuge tubes, and then added with more than 10 volumes of culture solution, mixed well; centrifuged for 5 min at 1000 rpm; the supernatant was discarded, and medium containing cell growth was added to resuspend cells. All cell suspensions were seeded to the T25 culture flasks and static cultured in an incubator at 37° C.; the culture solution were changed once on the next day, and continued to be cultured. • 2.4.2 Cell Passaging: After cells were grown to logarithmic phase and were 80%-90% confluent, cells were removed and placed in the biosafe cabinet, the old culture solution was discarded, and the cells were wetted and washed with PBS once or twice. An appropriate amount of 0.25% Trypsin-EDTA solution was added to the culture flasks. The flasks were placed in the carbon dioxide incubator at 37° C. for 2-5 min. An appropriate amount of cell growth medium containing 10% PBS was added to terminate the digestion, lightly swished, and transferred to the centrifuge tubes and centrifuged for 5 min at 1000 rpm. The cells were prepare (into cell suspensions for passaging and experimental use. • 2.4.3 Cell Plating • 2.4.3.1 A cell suspension was prepared: After cells were grown to logarithmic phase and were 80%-90% confluent, the cells were removed to the biosafe cabinet, and the old culture solution was discarded, then the cells were wetted and washed with PBS once or twice. An appropriate amount of 0.25% Trypsin-EDTA solution was added to the culture flask. The flask was placed in a carbon dioxide incubator at 37° C. for 2-5 min. An appropriate amount of the cell growth medium containing 10% PBS was added to terminate digestion, and was lightly swished. The solution was transferred to a centrifuge tube, centrifuged for 5 min at 1000 rpm, and counted. […]
# SK-BR3/BT474 = test: CTG cell survival assay, SK-BR3/BT474; settings: SK-BR3/BT474 cells
# Excerpt: as §1, §2, §3, §4
SMILES,EC50 (PC-3),EC50 (MV-4-11),EC50 (SK-BR3/BT474)
"Cn1c(=O)n([C@H]2CC[C@H](O)CC2)c2c3cc(-c4ccc(-c5ccccc5)nc4)ccc3ncc21 [Example 25, 1-((1r,4r)-4-hydroxycyclohexyl)-3-methyl-8-(6-phenylpyridin-3-yl)-1H-imidazo[4,5-c]quinolin-2(3H)-one]",< 100 nM,< 500 nM,< 500 nM
"CC(=O)N[C@H]1CC[C@@H](n2c(=O)n(C)c3cnc4ccc(-c5ccc(-c6cnn(C)c6)nc5)cc4c32)CC1 [Example 33, N-((1s,4s)-4-(3-methyl-8-(6-(1-methyl-1H-pyrazol-4-yl)pyridin-3-yl)-2-oxo-2,3-dihydro-1H-imidazo[4,5-c]quinolin-1-yl)cyclohexyl)acetamide]",< 200 nM,< 500 nM,< 100 nM
"Cn1cc(-c2ccc(-c3ccc4ncc5c(c4c3)n([C@H]3CC[C@@H](NS(C)(=O)=O)CC3)c(=O)n5C)cn2)cn1 [Example 34, N-((1s,4s)-4-(3-methyl-8-(6-(1-methyl-1H-pyrazol-4-yl)pyridin-3-yl)-2-oxo-2,3-dihydro-1H-imidazo[4,5-c]quinolin-1-yl)cyclohexyl)methanesulfonamide]",< 100 nM,< 200 nM,< 50 nM
"Cn1cc(-c2ccc(-c3ccc4ncc5c(c4c3)n([C@H]3CC[C@@H](C(=O)O)CC3)c(=O)n5C)cn2)cn1 [Example 35, (1s,4s)-4-(3-methyl-8-(6-(1-methyl-1H-pyrazol-4-yl)pyridin-3-yl)-2-oxo-2,3-dihydro-1H-imidazo[4,5-c]quinolin-1-yl)cyclohexanecarboxylic acid]",–,< 500 nM,< 200 nM
"Cn1cc(-c2ccc(-c3ccc4ncc5c(c4c3)n(-c3ccc(C(C)(C)C(N)=O)cc3)c(=O)n5C)cn2)cn1 [Example 40, 2-methyl-2-(4-(3-methyl-8-(6-(1-methyl-1H-pyrazol-4-yl)pyridin-3-yl)-2-oxo-2,3-dihydro-1H-imidazo[4,5-c]quinolin-1-yl)phenyl)propionamide]",10 nM,30 nM,25 nM
"Cn1cc(-c2ccc(-c3ccc4ncc5c(c4c3)n(-c3ccc(C(C)(C)C(=O)O)cc3)c(=O)n5C)cn2)cn1 [Example 41, 2-methyl-2-(4-(3-methyl-8-(6-(1-methyl-1H-pyrazol-4-yl)pyridin-3-yl)-2-oxo-2,3-dihydro-1H-imidazo[4,5-c]quinolin-1-yl)phenyl)propionic acid]",–,100 nM,–
"Cn1c(=O)n([C@H]2CCN(S(C)(=O)=O)C2)c2c3cc(-c4ccc(-n5cccn5)nc4)ccc3ncc21 [Example 44, (S)-8-(6-(1H-pyrazol-1-yl)pyridin-3-yl)-3-methyl-1-(1-(methanesulfonyl)pyrrolidin-3-yl)-1H-imidazo[4,5-c]quinolin-2(3H)-one]",< 50 nM,40 nM,90 nM
"Cn1cc(-c2ccc(-c3ccc4ncc5c(c4c3)n([C@H]3CCN(S(C)(=O)=O)C3)c(=O)n5C)cn2)nn1 [Example 45, (S)-3-methyl-8-(6-(1-methyl-1H-1,2,3-triazol-4-yl)pyridin-3-yl)-1-(1-(methanesulfonyl)pyrrolidin-3-yl)-1H-imidazo quinolin-2(3H)-one]",< 10 nM,< 20 nM,< 20 nM
"Cn1ccc(-c2ccc(-c3ccc4ncc5c(c4c3)n([C@H]3CCN(S(C)(=O)=O)C3)c(=O)n5C)cn2)n1 [Example 47, (S)-3-methyl-8-(6-(1-methyl-1H-pyrazol-3-yl)pyridin-3-yl)-1-(1-(methanesulfonyl)pyrrolidin-3-yl)-1H-imidazo[4,5-c]quinolin-2(3H)-one]",30 nM,< 100 nM,40 nM
"Cn1cc(-c2ccc(-c3ccc4ncc5c(c4n3)n([C@@H]3CCCN(S(C)(=O)=O)C3)c(=O)n5C)cn2)cn1 [Example 49, (R)-3-methyl-8-(6-(1-methyl-1H-pyrazol-4-yl)pyridin-3-yl)-1-(1-(methanesulfonyl)piperidin-3-yl)-1H-imidazo[4,5-c][1,5]naphthyridin-2(3H)-one]",10 nM,< 20 nM,20 nM
"Cn1cc(-c2ccc(-c3ccc4ncc5c(c4n3)n([C@H]3CCN(S(C)(=O)=O)C3)c(=O)n5C)cn2)nn1 [Example 50, (S)-3-methyl-8-(6-(1-methyl-1H-1,2,3-triazol-4-yl)pyridin-3-yl)-1-(1-(methanesulfonyl)pyrrolidin-3-yl)-1H-imidazo[4,5-c][1,5]naphthyridin-2(3H)-one]",20 nM,< 30 nM,30 nM
"Cn1cc(-c2ccc(-c3ccc4ncc5c(c4c3)n([C@H]3CC[C@@H](O)CC3)c(=O)n5C)cn2)nn1 [Example 51, 1-((1s,4s)-4-hydroxycyclohexyl)-3-methyl-8-(6-(1-methyl-1H-1,2,3-triazol-4-yl)pyridin-3-yl)-1H-imidazo[4,5-c]quinolin-2(3H)-one]",< 10 nM,< 20 nM,10 nM
"CCNC(=O)N1CCC[C@@H](n2c(=O)n(C)c3cnc4ccc(-c5ccc(-c6cnn(C)c6)nc5)cc4c32)C1 [Example 55, (R)—N-ethyl-3-(3-methyl-8-(6-(1-methyl-1H-pyrazol-4-yl)pyridin-3-yl)-2-oxo-2,3-dihydro-1H-imidazo[4,5-c]quinolin-1-yl)piperidine-1-formamide]",300 nM,800 nM,300 nM
"Cn1cc(-c2ccc(-c3ccc4ncc5c(c4c3)n([C@@H]3CCCN(S(C)(=O)=O)C3)c(=O)n5C)cn2)nn1 [Example 58, (R)-3-methyl-8-(6-(1-methyl-1H-1,2,3-triazol-4-yl)pyridin-3-yl)-1-(1-(methanesulfonyl)piperidin-3-yl)-1H-imidazo[4,5-c]quinolin-2(3H)-one]",–,60 nM,–
